# Reference: ChEMBL document CHEMBL5291721, “A preclinical secondary pharmacology resource illuminates target-adverse drug reaction associations of marketed drugs” (Nat Commun, 2023)
# Key:
# [1] = biological target: T1, Prostaglandin G/H synthase 1 (Rattus norvegicus, UniProt Q63921); format: functional
# T1 sequence (Q63921 whole entry): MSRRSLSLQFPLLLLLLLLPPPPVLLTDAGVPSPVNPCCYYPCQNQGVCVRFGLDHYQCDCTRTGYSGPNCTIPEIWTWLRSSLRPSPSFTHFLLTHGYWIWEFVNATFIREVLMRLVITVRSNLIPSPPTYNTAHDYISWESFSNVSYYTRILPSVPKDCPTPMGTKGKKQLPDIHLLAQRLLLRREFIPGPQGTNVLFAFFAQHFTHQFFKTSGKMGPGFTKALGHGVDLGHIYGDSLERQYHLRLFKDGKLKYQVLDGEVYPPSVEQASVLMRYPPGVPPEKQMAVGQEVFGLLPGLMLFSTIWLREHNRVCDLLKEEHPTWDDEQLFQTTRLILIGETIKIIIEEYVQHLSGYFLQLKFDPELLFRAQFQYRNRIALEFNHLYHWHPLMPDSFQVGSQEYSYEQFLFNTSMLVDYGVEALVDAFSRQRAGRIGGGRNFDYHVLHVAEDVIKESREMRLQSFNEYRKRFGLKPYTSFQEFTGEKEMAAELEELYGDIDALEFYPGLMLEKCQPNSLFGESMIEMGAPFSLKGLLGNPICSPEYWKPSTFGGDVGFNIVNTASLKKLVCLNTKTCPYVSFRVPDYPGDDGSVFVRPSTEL
# [2] = biological target: 5-hydroxytryptamine receptor 2B (Homo sapiens, UniProt P41595)
# [3] = biological target: T2, Bile acid receptor (Homo sapiens, UniProt Q96RI1); format: functional
# T2 sequence (Q96RI1 whole entry): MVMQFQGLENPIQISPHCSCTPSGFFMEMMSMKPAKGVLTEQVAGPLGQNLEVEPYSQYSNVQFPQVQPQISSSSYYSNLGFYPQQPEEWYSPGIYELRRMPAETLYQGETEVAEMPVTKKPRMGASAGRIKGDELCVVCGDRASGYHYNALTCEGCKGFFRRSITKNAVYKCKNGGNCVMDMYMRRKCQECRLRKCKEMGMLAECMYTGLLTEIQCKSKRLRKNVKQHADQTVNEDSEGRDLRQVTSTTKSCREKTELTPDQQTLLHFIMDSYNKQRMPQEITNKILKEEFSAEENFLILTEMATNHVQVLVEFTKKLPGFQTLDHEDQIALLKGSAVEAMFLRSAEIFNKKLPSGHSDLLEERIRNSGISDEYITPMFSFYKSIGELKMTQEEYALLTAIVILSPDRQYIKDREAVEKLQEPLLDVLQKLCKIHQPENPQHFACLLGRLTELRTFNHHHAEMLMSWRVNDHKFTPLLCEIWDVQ
# [4] = biological target: T3, Peroxisome proliferator-activated receptor alpha (Homo sapiens, UniProt Q07869); format: functional
# T3 sequence (Q07869 whole entry): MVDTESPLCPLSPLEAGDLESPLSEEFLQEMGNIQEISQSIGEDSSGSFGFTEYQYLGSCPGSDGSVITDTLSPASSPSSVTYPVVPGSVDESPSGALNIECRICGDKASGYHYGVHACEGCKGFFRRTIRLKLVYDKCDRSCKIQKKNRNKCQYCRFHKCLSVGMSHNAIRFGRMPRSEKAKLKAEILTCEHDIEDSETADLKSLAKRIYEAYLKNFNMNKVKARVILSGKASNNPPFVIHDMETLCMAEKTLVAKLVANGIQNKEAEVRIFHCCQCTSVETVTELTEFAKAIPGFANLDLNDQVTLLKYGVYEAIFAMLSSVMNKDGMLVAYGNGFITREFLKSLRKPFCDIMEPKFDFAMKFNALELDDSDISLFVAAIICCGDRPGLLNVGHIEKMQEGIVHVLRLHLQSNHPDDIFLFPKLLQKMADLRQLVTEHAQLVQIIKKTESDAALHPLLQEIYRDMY
# [5] = biological target: T4, Retinoic acid receptor alpha (Homo sapiens, UniProt P10276); format: functional, cell-based
# T4 sequence (P10276 whole entry): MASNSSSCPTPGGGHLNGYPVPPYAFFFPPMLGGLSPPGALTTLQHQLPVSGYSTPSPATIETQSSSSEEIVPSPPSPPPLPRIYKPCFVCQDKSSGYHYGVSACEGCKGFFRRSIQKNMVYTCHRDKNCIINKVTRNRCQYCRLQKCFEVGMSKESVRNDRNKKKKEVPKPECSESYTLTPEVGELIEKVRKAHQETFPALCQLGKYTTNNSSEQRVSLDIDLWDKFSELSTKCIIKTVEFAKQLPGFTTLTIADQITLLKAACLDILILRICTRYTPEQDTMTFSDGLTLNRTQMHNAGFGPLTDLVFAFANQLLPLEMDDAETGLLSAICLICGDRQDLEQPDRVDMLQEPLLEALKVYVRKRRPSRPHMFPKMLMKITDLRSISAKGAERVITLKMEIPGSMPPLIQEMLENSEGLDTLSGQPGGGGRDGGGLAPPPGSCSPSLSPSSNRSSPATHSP
# [6] = biological target: T5, Retinoic acid receptor beta (Homo sapiens, UniProt P10826); format: functional, cell-based
# T5 sequence (P10826 whole entry): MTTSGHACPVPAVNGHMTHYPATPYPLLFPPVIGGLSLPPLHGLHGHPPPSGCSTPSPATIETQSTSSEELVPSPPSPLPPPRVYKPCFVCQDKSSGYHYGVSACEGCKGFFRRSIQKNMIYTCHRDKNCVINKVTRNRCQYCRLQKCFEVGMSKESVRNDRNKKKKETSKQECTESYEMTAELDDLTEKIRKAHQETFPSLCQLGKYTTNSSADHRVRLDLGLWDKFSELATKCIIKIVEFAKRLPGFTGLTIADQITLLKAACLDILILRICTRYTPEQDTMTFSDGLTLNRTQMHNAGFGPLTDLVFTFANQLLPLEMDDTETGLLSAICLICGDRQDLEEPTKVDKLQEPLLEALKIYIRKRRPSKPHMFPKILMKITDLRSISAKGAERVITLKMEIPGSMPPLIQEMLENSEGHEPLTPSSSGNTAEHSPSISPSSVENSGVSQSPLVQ
# [7] = biological target: T5, Retinoic acid receptor beta; format: functional, cell-based; remark: listed apart in the source
# Also: assay procedure not described here.
# 5-hydroxytryptamine receptor 2B, sequence (P41595 whole entry): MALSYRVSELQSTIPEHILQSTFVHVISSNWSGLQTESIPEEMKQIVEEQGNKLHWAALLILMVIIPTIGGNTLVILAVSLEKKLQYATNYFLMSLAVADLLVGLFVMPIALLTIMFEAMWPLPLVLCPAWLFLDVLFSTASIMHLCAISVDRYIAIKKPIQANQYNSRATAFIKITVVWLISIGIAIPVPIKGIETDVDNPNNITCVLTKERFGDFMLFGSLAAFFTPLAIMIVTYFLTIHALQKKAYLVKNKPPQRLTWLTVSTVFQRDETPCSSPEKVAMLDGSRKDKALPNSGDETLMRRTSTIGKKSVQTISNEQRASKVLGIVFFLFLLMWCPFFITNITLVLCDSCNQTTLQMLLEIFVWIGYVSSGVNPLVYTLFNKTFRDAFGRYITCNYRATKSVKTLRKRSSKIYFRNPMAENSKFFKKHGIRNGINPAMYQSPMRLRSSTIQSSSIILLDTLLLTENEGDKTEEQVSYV
structure (smiles),measurement,setting,value
COc1ccc(C(Cl)=C(c2ccc(OC)cc2)c2ccc(OC)cc2)cc1 [CHLOROTRIANISENE],AC50,[1],0.0782 µM
N=C(N)NC(=O)Cc1c(Cl)cccc1Cl [GUANFACINE],AC50,[2],1.01 µM
CC(=O)N1CCN(c2ccc(OCC3COC(Cn4ccnc4)(c4ccc(Cl)cc4Cl)O3)cc2)CC1 (configuration not stated) [KETOCONAZOLE],AC50,[3],> 30 µM
same,AC50,[4],> 30 µM
same,AC50,[5],> 30 µM
same,AC50,[6],> 30 µM
same,AC50,[7],3.3 µM
